From US8293715B2, “10a-Azalide compound crosslinked at 10a- and 12-positions” (Taisho Pharmaceutical Co., Ltd., priority 2007, dated 2012)
Converted amounts (≈) assume the structure as drawn.

Columns and labels:
Assay type in all cases: cell-based
H. influenzae ATCC 43095 = assay: In vitro antibacterial activity, MIC by microbroth dilution method (CLSI method), test bacteria symbol A; settings: Haemophilus influenzae, ATCC43095, read-out: MIC (minimum inhibitory concentration), test bacteria A
Method: (§1) In vitro antibacterial activities of the compounds of the present invention against various test bacteria were measured according to the microbroth dilution method (CLSI method). As Comparative agent 1, clarithromycin was used, and the results for typical exemplary compounds are shown as MIC values (minimum inhibitory concentration, μg/ml) in Table 19.

S. pneumoniae ATCC 49619 = assay: In vitro antibacterial activity, MIC by microbroth dilution method (CLSI method), test bacteria symbol B; settings: Streptococcus pneumoniae, ATCC49619, read-out: MIC (minimum inhibitory concentration), test bacteria B
Method: as §1

[1] = test system: S. pneumoniae ATCC 700904; assay: In vitro antibacterial activity, MIC by microbroth dilution method (CLSI method), test bacteria symbol C; settings: Streptococcus pneumoniae, ATCC700904, read-out: MIC (minimum inhibitory concentration), test bacteria C
Method: as §1

| Structure (SMILES) | MIC (H. influenzae ATCC 43095) [µg/mL] | MIC (S. pneumoniae ATCC 49619) [µg/mL] | MIC [1] [µg/mL] |
| --- | --- | --- | --- |
| CO[C@@]1(C)C[C@@H](C)[C@H](O)[C@H](C)N2C[C@@H](COc3cccc(C(C)(C)C)c3)[C@H](C2)OC(=O)C(C)(Cl)C(=O)[C@H](C)[C@H]1O[C@@H]1O[C@H](C)C[C@H](N(C)C)[C@H]1O (stereo partly drawn) [Example522] | 16 (≈ 21.6 µM) | 8 (≈ 10.8 µM) | > 16 |
| CC[C@H]1OC(=O)[C@H](C)[C@@H](O[C@H]2C[C@@](C)(OC)[C@@H](O)[C@H](C)O2)[C@H](C)[C@@H](O[C@@H]2O[C@H](C)C[C@H](N(C)C)[C@H]2O)[C@](C)(OC)C[C@@H](C)C(=O)[C@H](C)[C@@H](O)[C@]1(C)O [Comparative agent 1, clarithromycin, reference compound] | 4 (≈ 5.35 µM) | 0.03 (≈ 0.0401 µM) | > 128 |
| CO[C@]1(C)C[C@H](O[C@H]2[C@H](C)[C@@H](O[C@@H]3O[C@H](C)C[C@H](N(C)C)[C@H]3O)[C@@](C)(OC)C[C@@H](C)[C@H](O)[C@H](C)N3C[C@@H](COCc4ccccc4)[C@H](C3)OC(=O)[C@@H]2C)O[C@@H](C)[C@@H]1O [Example523] | 4 (≈ 4.86 µM) | 0.12 (≈ 0.146 µM) | > 128 |
| CO[C@]1(C)C[C@H](O[C@H]2[C@H](C)[C@@H](O[C@@H]3O[C@H](C)C[C@H](N(C)C)[C@H]3O)[C@@](C)(OC)C[C@@H](C)[C@H](O)[C@H](C)N3CCC[C@@H](C3)OC(=O)[C@@H]2C)O[C@@H](C)[C@@H]1O [Example525] | 0.5 (≈ 0.697 µM) | 0.25 (≈ 0.349 µM) | > 128 |
